The values below come from ChEMBL document CHEMBL3797103, “Synthesis of a dansyl-labeled inhibitor of 17β-hydroxysteroid dehydrogenase type 3 for optical imaging” (Bioorg Med Chem Lett, 2016).

Data set [1] deals with T1, 17-beta-hydroxysteroid dehydrogenase type 3 (Homo sapiens, UniProt P37058).
T1 sequence (P37058 whole entry): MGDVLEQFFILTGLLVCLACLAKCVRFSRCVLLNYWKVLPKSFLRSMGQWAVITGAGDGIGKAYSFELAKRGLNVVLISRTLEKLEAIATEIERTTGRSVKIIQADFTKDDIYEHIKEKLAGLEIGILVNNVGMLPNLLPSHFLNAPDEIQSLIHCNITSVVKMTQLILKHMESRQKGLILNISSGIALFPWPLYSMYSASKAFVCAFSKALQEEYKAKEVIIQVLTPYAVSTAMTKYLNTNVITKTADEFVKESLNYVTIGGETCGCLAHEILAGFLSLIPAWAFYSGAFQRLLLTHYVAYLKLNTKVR
Put plainly: Inhibition of 17betaHSD3 (unknown origin) transfected in human LNCAP cells assessed as conversion of [14C]-4-androstene-3,17-dione into [14C]-testosterone after 3 hrs. It is filed as cell-based.

Data set [2] concerns LNCaP. Put plainly: Drug uptake in 17betaHSD3 expressing human LNCAP cells assessed as mean fluorescence intensity at 30 uM after 4 hrs by flow cytometric analysis. Type of data set: ADME, cell-based. For orientation: A flow cytometer gives signals particle by particle.
The subject of data set [3] is LNCaP. Nature of the data set: Drug localization in 17betaHSD3 expressing human LNCAP cell assessed as localized space around endoplasmic reticulum at 1 uM preincubated for 3 hrs followed by ER tracker addition for the last remaining hour by fluorescent microscopic analysis. Type of data set: ADME, cell-based.
For data set [4], the system named is LNCaP. Nature of the data set: Drug uptake in 17betaHSD3 expressing human LNCAP cells assessed as shape of the cells at 10 uM excited at 350 nm after 4 hrs by fluorescence confocal spinning disk microscopic analysis. It is filed as ADME, cell-based.
Data set [5] is described as follows: Drug localization in 17betaHSD3 expressing human LNCAP cell assessed as localised around lysosomes at 1 uM after 4 hrs by fluorescent microscopic analysis in the presence of lysosome tracker. Type of data set: ADME, cell-based.
Data set [6] relates to LNCaP. Put plainly: Drug uptake in 17betaHSD3 expressing human LNCAP cells at 3 to 50 uM after 4 hrs by flow cytometric analysis. It is filed as ADME, cell-based.
The subject of data set [7] is LNCaP. Put plainly: Drug uptake in wild type human LNCAP cells assessed as shape of the cells at 10 uM excited at 350 nm after 4 hrs by fluorescence confocal spinning disk microscopic analysis. It is filed as ADME, cell-based.
The test system of data set [8] is LNCaP. Nature of the data set: Drug uptake in wild-type human LNCAP cells at 3 to 50 uM after 4 hrs by flow cytometric analysis. It is filed as ADME, cell-based.

The IC50 is the concentration that gives 50% inhibition. Take `C[C@@H]1CN(S(=O)(=O)c2ccccc2C(F)(F)F)[C@@H](C)CN1C[C@@]1(O)CC[C@@]2(C)[C@@H](CC[C@@H]3[C@@H]2CC[C@]2(C)C(=O)CC[C@@H]32)C1`: the IC50 in data set [1] was found to be 85 nM.
As for `C[C@@H]1CN(S(=O)(=O)c2cccc3c(N(C)C)cccc23)[C@@H](C)CN1C[C@@]1(O)CC[C@@]2(C)[C@@H](CC[C@@H]3[C@@H]2CC[C@]2(C)C(=O)CC[C@@H]32)C1`, the Flu intensity in the data set with LNCaP [2] is on record as 4. The Drug uptake entry in the data set on LNCaP [3] is reported as “Active”; in the data set on LNCaP [4], “Active”; in data set [5], “Active”; with LNCaP [6], “Active”; in the data set on LNCaP [7] it was “Not Active”; in the data set with LNCaP [8] it was “Active”. In data set [1], the IC50 was 262 nM.
